Laboratory results reported in publication PMC7408547, “Bivalent Inhibitor with Selectivity for Trimeric MMP-9 Amplifies Neutrophil Chemotaxis and Enables Functional Studies on MMP-9 Proteoforms” (Cells, 2020).

How the values were obtained:
[1] = Ex vivo stability in mouse blood (remaining MMP-9 inhibitory activity); type: in vitro ADME; conditions: 500 µM in freshly isolated mouse blood, 37 °C; plasma and cell lysates
Description: Toxicity of compounds 5 and 7 was evaluated in vitro on the U-87 cell line. Briefly, U-87 cells were seeded in 96-well plates (cat. No. 92096, TPP Techno Plastic Products, Trasadingen, Switzerland) at 2000 cells/well in DMEM FluoroBrite containing 10% FBS and incubated for 24 h. Cells were washed and further grown in DMEM FluoroBrite with 5% KnockOut™ Serum Replacement (Gibco, Waltham, MA, USA). Compounds 5 and 7 were added to the wells in a 1:2 dilution series starting at 20 µM and ending at 0.16 µM. To evaluate the effect of the compound on cell growth, confluence was determined every hour for 17h using the Incucyte® S3 Live-Cell Analysis System (Sartorius, Göttingen, Germany). Next, cells were stained with the LIVE/DEAD™ Viability/Cytotoxicity Kit for mammalian cells (Invitrogen, Carlsbad, CA, USA; cat. # L3224) and cell viability was evaluated. Data were normalized to the mean confluence of wells containing no inhibitors. To measure the stability of the compounds, fresh blood was collected from heathy mice by cardiac puncture with a heparin-coated needle and syringe and 30UI/mL heparin was added. Next, compound 5, compound 7 or vehicle (DMSO) was added to the blood at a final concentration of 500 µM and incubated at 37 °C. […] Background inhibition was subtracted and results were expressed as percentage inhibition.

TACE/ADAM17 = molecular target: T1, TACE/ADAM17 (Homo sapiens, UniProt P78536); experiment: TACE/ADAM17 fluorogenic peptide assay; type: biochemical; conditions: Mca-PLAQAV-Dpa-RSSSR-NH2 fluorogenic peptide, tested up to an inhibitor concentration of 50 µM
T1 construct: purchased R & D systems; host or cells: Sf 21 (baculovirus)
T1 sequence (P78536 215-824): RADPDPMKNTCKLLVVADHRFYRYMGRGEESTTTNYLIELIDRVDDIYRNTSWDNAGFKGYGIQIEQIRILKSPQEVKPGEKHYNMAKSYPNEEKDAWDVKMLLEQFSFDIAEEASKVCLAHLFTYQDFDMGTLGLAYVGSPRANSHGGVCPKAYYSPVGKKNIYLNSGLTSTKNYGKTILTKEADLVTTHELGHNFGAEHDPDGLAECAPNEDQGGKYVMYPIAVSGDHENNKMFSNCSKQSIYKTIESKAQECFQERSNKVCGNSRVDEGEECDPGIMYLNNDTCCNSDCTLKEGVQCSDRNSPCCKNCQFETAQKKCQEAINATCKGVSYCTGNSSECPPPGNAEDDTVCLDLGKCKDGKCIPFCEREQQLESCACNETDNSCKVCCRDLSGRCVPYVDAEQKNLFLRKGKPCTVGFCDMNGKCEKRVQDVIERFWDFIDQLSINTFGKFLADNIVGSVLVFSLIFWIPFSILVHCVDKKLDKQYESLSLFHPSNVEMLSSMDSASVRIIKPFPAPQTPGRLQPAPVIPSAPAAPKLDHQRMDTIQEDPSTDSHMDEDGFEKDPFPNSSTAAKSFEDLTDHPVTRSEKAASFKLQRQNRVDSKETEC
Description: Compounds 5 and 7 were synthesized as previously reported. Full-length human proMMP-9 was produced by recombinant expression in Sf9 insect cells and purified by gelatin-Sepharose chromatography as previously described. Stable full-length proMMP-9 monomers and trimers were separated by glycerol gradient ultracentrifugation as previously described. ProMMP-9 mixture and the separated monomers and trimers were activated by incubation with the catalytic domain of MMP-3 (cat. No. 444217, Merck Millipore, Darmstadt, Germany) as previously described. Activation of proMMP-9 was confirmed by a band shift of ±10 kDa, corresponding to the removal of the auto-inhibitory propeptide domain and by detection of gelatinolytic activity with a previously described gelatin degradation assay. MMP-9 monomers and trimers purified from human neutrophils were purchased (Cat. No. 444,231 and 444232, Sigma-Aldrich, St. Louis, MO, USA). Examples of sample purities and activations can be found in Supplementary Figure S1. Recombinant human proMMP-2 (CHO cell-derived), proMMP-3 (NS0 cell-derived), proMMP-7 (NS0 cell-derived) and proMMP-8 (NS0 cell-derived) were purchased from R & D systems (Minneapolis, MN, USA), dissolved in assay buffer (150 mM NaCl, 5 mM CaCl2, 0.01% Tween-20, 50 mM Tris, pH 7.4) to a concentration of 100 µg/mL and activated by incubation with 1 mM p-aminophenylmercuric acetate for, respectively, 1h, 6h, 2h and 1h. Activation of MMPs was confirmed by a band shift of approximately 10 kDa, corresponding to the removal of the propeptide domain. MMP-14/MT1-MMP (NS0 cell-derived) was also purchased from R & D systems (Minneapolis, MN, USA) and activated by incubation with recombinant human furin (cat. No. 1503-SE-010, R & D systems, Minneapolis, MO, USA) in activation buffer (50 mM Tris, 1 mM CaCl2, 0.5% Brij-35, pH 9) for 1.5 h and activity was tested in assay buffer (50 mM Tris, 3 mM CaCl2, 1 µM ZnCl2, pH 8.5). […] ADAM17/TACE (Sf 21 (baculovirus)-derived, R & D systems, Minneapolis, MO, USA) was diluted and evaluated in 25 mM Tris, 2.5 μM ZnCl2, 0.005% Brij-35, pH 9.0. All stocks of the compounds were evaluated for the presence of endotoxin using the EndoZyme II assay (Hyglos bioMérieux, Bernried am Starnberger See, Germany). […]
To determine the inhibition of gelatinolytic activity, we used a previously optimized gelatin degradation assay. […] Next, dye-quenched gelatin (DQ™-gelatin, Invitrogen, Carlsbad, CA, USA) was added at a final concentration of 2.5 µg/mL and the increase in fluorescence over time was measured with the CLARIOstar microplate reader (BMG Labtech, Ortenberg, Germany). […] Proteolytic activity was determined by linear regression of the fluorescence curve and the percentage inhibition was calculated through comparison with the positive control (no inhibitors). […]

neutrophil elastase = molecular target: T2, neutrophil elastase (Homo sapiens, UniProt P08246); experiment: Neutrophil elastase activity assay (fluorogenic elastase peptide and gelatin); type: biochemical; conditions: fluorogenic elastase substrate and gelatin; tested up to an inhibitor concentration of 50 µM
T2 construct: Active human neutrophil elastase (NE) was purchased from Abcam; purchased Abcam
T2 sequence (P08246 30-267): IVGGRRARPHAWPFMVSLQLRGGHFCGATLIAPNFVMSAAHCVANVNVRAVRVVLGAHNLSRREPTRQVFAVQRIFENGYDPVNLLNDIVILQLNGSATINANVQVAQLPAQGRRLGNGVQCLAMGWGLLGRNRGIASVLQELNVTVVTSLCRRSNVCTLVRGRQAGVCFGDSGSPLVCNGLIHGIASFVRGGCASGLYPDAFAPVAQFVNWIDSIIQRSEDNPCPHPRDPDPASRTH
Description: Compounds 5 and 7 were synthesized as previously reported. Full-length human proMMP-9 was produced by recombinant expression in Sf9 insect cells and purified by gelatin-Sepharose chromatography as previously described. Stable full-length proMMP-9 monomers and trimers were separated by glycerol gradient ultracentrifugation as previously described. ProMMP-9 mixture and the separated monomers and trimers were activated by incubation with the catalytic domain of MMP-3 (cat. No. 444217, Merck Millipore, Darmstadt, Germany) as previously described. […] ADAM17/TACE (Sf 21 (baculovirus)-derived, R & D systems, Minneapolis, MO, USA) was diluted and evaluated in 25 mM Tris, 2.5 μM ZnCl2, 0.005% Brij-35, pH 9.0. All stocks of the compounds were evaluated for the presence of endotoxin using the EndoZyme II assay (Hyglos bioMérieux, Bernried am Starnberger See, Germany). […]
To determine the inhibition of gelatinolytic activity, we used a previously optimized gelatin degradation assay. […] Next, dye-quenched gelatin (DQ™-gelatin, Invitrogen, Carlsbad, CA, USA) was added at a final concentration of 2.5 µg/mL and the increase in fluorescence over time was measured with the CLARIOstar microplate reader (BMG Labtech, Ortenberg, Germany). […]

| Structure (SMILES) | ex vivo stability: remaining MMP-9 inhibitory activity [1] | IC50 (TACE/ADAM17) | IC50 (TACE/ADAM17; listed as compound 7) | IC50 (neutrophil elastase) | IC50 (TACE/ADAM17; listed as compound 5) |
| --- | --- | --- | --- | --- | --- |
| CC(C)[C@H](C(=O)O)N(CCNC(=O)c1cccc(C(=O)NCCN([C@@H](C(=O)O)C(C)C)S(=O)(=O)c2ccc(-c3ccccc3)cc2)c1)S(=O)(=O)c1ccc(-c2ccccc2)cc1 [Compound 7] | remained detectable up to 24h later | no inhibition ^† | not inhibited | no inhibition ^† | – |
| CC(C)[C@H](C(=O)O)N(CCNC(=O)c1ccccc1)S(=O)(=O)c1ccc(-c2ccccc2)cc1 [Compound 5] | remained detectable up to 24h later | no inhibition ^† | – | no inhibition ^† | not inhibited |
